Laboratory results as given in article PMC7418559, “Synthesis and SAR of Tetracyclic Inhibitors of Protein Kinase CK2 Derived from Furocarbazole W16” (Chemmedchem, 2020).
Read-outs that look alike come from different tables or passages of the source.

What was measured:
[1] = biological target: T1, mutated CK2α’ ^C336S subunit (Homo sapiens, UniProt P19784, C336S); test: Capillary electrophoresis (CE) assay, enzyme inhibition of the mutated CK2α′ C336S subunit; assay type: biochemical; details: for inhibition at 10 µM: read-out: Inhibition (%) of CK2α’ ^C336S
T1 construct: His6 (N); made in house
T1 sequence (P19784 1-350 C336S): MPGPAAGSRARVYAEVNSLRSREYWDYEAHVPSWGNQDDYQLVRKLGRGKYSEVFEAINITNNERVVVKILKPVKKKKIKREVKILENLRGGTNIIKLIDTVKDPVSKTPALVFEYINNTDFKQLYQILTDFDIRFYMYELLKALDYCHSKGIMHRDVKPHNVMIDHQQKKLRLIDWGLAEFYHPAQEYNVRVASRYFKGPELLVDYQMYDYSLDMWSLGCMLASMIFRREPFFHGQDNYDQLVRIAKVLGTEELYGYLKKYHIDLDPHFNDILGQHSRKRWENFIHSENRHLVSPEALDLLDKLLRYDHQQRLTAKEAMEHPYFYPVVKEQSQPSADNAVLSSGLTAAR
Excerpt: (§1) In this assay, the decapeptide […], a known class I substrate suitable for assaying the kinase activity of both the CK2 holoenzyme and the catalytically active CK2 subunits,50, 58 was reacted with ATP in the presence of enzyme, which transfers a phosphate group to Ser7 of the decapeptide. Due to the additional negative charge of the phosphate group, the decapeptide and the phosphorylated decapeptide can be separated by CE. […] The data on the inhibition of the kinase activities of CK2α2β2, CK2α subunit and mutated CK2α’ ^C336S subunit are summarized in Table 1.
(§2) Enzymatic activities with or without inhibitors were determined for the holoenzyme (CK2α2β2), the CK2α subunit, and the mutated CK2α′ ^C336S subunit by a capillary electrophoresis assay as described before.59 For this purpose, CK2α as well as (CK2α2β2) holoenzyme were purified after recombinant expression in E. coli BL21(DE3) and purified according the protocol of Grankowski et al.62 The mutated CK2α′ ^C336S subunit was purified by Ni‐NTA affinity chromatography using an N‐terminally attached His6 tag. Successful purification was controlled by SDS‐PAGE. Enzymatic activity was determined in the presence of 60 μM ATP and 114 μM of the substrate peptide […]. For both CK2α subunits an assay buffer containing 100 mM NaCl instead of 60 mM NaCl as for the holoenzyme, and 20 mM MgCl2 instead of 10 mM MgCl2 was applied. For the holoenzyme, 1 μg was added, whereas for CK2α and the mutated CK2α′ ^C336S subunit 0.25 μg was added each. For each compound inhibition was determined three times independently at an initial concentration of 10 μM and the mean value and the standard deviation (SD) were calculated.

[2] = biological target: T2, CK2α subunit (Homo sapiens, UniProt P68400); test: Capillary electrophoresis (CE) assay, enzyme inhibition of the CK2α subunit; assay type: biochemical; details: for inhibition at 10 µM: read-out: Inhibition (%) of CK2α; for Inhibition (%) of CK2α: c=10 μM, CE assay, mean±SD of three experiments, n.s.=not significant
T2 construct: made in house; host or cells: E. coli BL21(DE3)
T2 sequence (P68400 whole entry): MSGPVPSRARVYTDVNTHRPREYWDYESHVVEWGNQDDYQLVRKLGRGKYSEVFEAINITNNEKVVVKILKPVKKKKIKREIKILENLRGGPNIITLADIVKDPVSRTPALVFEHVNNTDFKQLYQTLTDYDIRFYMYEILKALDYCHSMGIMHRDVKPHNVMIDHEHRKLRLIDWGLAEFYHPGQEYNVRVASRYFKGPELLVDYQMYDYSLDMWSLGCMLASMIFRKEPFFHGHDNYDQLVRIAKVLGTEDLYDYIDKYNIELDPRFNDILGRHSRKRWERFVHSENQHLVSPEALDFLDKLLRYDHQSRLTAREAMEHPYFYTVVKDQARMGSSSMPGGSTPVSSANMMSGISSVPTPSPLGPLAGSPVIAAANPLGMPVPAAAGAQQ
Excerpt: as §1, §2

[3] = biological target: T3, holoenzyme CK2α2β2 (Homo sapiens, UniProt P68400); test: Capillary electrophoresis (CE) assay, enzyme inhibition of the holoenzyme; assay type: biochemical; details: for inhibition at 10 µM: read-out: Inhibition (%) of CK2α2β2
T3 construct: made in house; host or cells: E. coli BL21(DE3)
T3 sequence (P68400 whole entry): as above
Method: In this assay, the decapeptide […], a known class I substrate suitable for assaying the kinase activity of both the CK2 holoenzyme and the catalytically active CK2 subunits,50, 58 was reacted with ATP in the presence of enzyme, which transfers a phosphate group to Ser7 of the decapeptide. Due to the additional negative charge of the phosphate group, the decapeptide and the phosphorylated decapeptide can be separated by CE.
Enzymatic activities with or without inhibitors were determined for the holoenzyme (CK2α2β2), the CK2α subunit, and the mutated CK2α′ ^C336S subunit by a capillary electrophoresis assay as described before.59 For this purpose, CK2α as well as (CK2α2β2) holoenzyme were purified after recombinant expression in E. coli BL21(DE3) and purified according the protocol of Grankowski et al.62 The mutated CK2α′ ^C336S subunit was purified by Ni‐NTA affinity chromatography using an N‐terminally attached His6 tag. […] For both CK2α subunits an assay buffer containing 100 mM NaCl instead of 60 mM NaCl as for the holoenzyme, and 20 mM MgCl2 instead of 10 mM MgCl2 was applied. For the holoenzyme, 1 μg was added, whereas for CK2α and the mutated CK2α′ ^C336S subunit 0.25 μg was added each. For each compound inhibition was determined three times independently at an initial concentration of 10 μM and the mean value and the standard deviation (SD) were calculated.

[4] = biological target: T4, CK2α/CK2β interaction (CK2α^1−335 / fluorescently labeled CK2β^1−193) (Homo sapiens, UniProt P68400); details: for Inhibition of CK2α/CK2β2 interaction K i: MST, global fit with K D = […] nM, mean±SEM of 2–4 experiments, prec.=precipitation, n.s.=not significant
T4 sequence (P68400 1-335): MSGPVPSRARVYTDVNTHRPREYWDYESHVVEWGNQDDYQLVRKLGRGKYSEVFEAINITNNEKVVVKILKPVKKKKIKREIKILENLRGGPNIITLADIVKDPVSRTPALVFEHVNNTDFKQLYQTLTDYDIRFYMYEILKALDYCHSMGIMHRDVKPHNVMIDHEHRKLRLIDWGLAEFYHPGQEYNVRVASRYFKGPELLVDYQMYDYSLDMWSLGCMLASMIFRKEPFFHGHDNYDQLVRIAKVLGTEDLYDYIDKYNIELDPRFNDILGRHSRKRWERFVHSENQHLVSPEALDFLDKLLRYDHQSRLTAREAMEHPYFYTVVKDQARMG
Method: The inhibition of the interaction between the CK2α and the CK2β subunit was determined in a microscale thermophoresis (MST) assay.
To quantify the protein‐protein interaction in the presence of potential inhibitors, the investigated compounds were first dissolved in DMSO (2‐10 mM) and then 50‐fold diluted in ITC buffer (25 mM Tris‐HCl, 500 mM NaCl, pH 8.5) containing 0.1 % (v/v) Tween 20 to concentrations of either 40, 100 or 200 μM in 2 % (v/v) DMSO, i. e. twice the final concentrations: 20, 50 and 100 μM, respectively, in 1 % (v/v) DMSO, 0.05 % (v/v) Tween 20. […] MST traces were recorded at room temperature using a Nanotemper Monolith™ NT.115 Series Instrument with Monolith™ NT.115 standard treated capillaries and normalized to initial fluorescence (MO.Affinity Analysis, Nanotemper). […] Next, the statistical significance of the shift from K D to K D’ was determined for each compound by means of an unpaired Student's t test (Table S4). […] Data was analyzed and statistically evaluated with the program GraphPad Prism v.5.04 for Windows (GraphPad Software, San Diego, CA, USA).
a Shown are mean  SEM values of KD and KD’ for n separate experiments.
significant (n. s.), P > 0.05; *, P ≤ 0.05; **, P ≤ 0.01; ***, P ≤ 0.001; ****, P ≤ 0.0001. prec.

[5] = c=10 μM, CE assay, mean±SD of three experiments, n.s.=not significant

Structure (SMILES) | Inhibition (%) of CK2α’ ^C336S [1, 5] | Inhibition (%) of CK2α [2] | Ki [4] | inhibition at 10 µM [3, 5] | Inhibition of CK2α/CK2β2 interaction K i [4] | other results
COc1cc([C@H]2c3c([nH]c4ccccc34)[C@H](C(=O)N3C(=O)OC[C@@H]3Cc3ccccc3)[C@H]3C(=O)OC(=O)[C@@H]23)cc(OC)c1OC [(+)‐3 c, (3aR,4R,10S,10aS)‐4‐{[(S)‐4‐Benzyl‐2‐oxo‐1,3‐oxazolidin‐3‐yl]carbonyl}‐10‐(3,4,5‐trimethoxyphenyl)‐4,5,10,10a‐tetrahydrofuro[3,4‐b]carbazole‐1,3(3aH)‐dione] | – | – | – | – | – | inhibition at 10 µM [1]: 52 ± 38%; inhibition at 10 µM [2]: 65 ± 4%; inhibition at 10 µM [3]: 66 ± 16%
COc1cc([C@@H]2c3c([nH]c4ccccc34)[C@H](C(=O)N3C(=O)OC[C@H]3Cc3ccccc3)[C@@H]3C(=O)NC(=O)[C@H]23)cc(OC)c1OC [(−)‐9 a] | n.s. | n.s. | 3.6 ± 0.6 µM | – | – | Inhibition (%) of CK2α2β2 [3, 5]: n.s.
COc1cc([C@@H]2c3c([nH]c4ccccc34)[C@@H](C(=O)O)[C@@H]3C(=O)NC(=O)[C@H]23)cc(OC)c1OC (racemic) [(±)‐12] | n.s. | n.s. | 1.8 ± 0.8 µM | – | – | Inhibition (%) of CK2α2β2 [3, 5]: n.s.
COc1cc([C@@H]2c3c([nH]c4ccccc34)[C@H](C(=O)N3C(=O)OC[C@H]3Cc3ccccc3)[C@@H]3C(=O)OC(=O)[C@H]23)cc(OC)c1OC [(−)‐3 a] | – | – | – | – | – | inhibition at 10 µM [1]: 93 ± 2%; inhibition at 10 µM [2]: 73 ± 4%; inhibition at 10 µM [3]: 89 ± 3%
COc1cc([C@@H]2c3c([nH]c4ccccc34)[C@@H](C(=O)N3C(=O)OC[C@@H]3Cc3ccccc3)[C@@H]3C(=O)NC(=O)[C@H]23)cc(OC)c1OC [(−)‐9 d] | – | – | – | < 50% | n.s. | –
COc1cc([C@@H]2c3c([nH]c4ccccc34)[C@@H](C(=O)N3C(=O)OC[C@H]3Cc3ccccc3)[C@@H]3C(=O)NC(=O)[C@H]23)cc(OC)c1OC [(‐)‐9 c] | – | – | – | < 50% | prec. | –
COc1cc([C@H]2c3c([nH]c4ccccc34)[C@H](C(=O)N3C(=O)OC[C@H]3Cc3ccccc3)[C@H]3C(=O)NC(=O)[C@@H]23)cc(OC)c1OC [(+)‐9 d] | – | – | – | < 50% | n.s. | –
CCOC(=O)C1c2[nH]c3ccccc3c2C(c2cc(OC)c(OC)c(OC)c2)C2C(=O)NC(=O)C12 (racemic) [(±)‐11] | n.s. | n.s. | 32 ± 17 µM | – | – | Inhibition (%) of CK2α2β2 [3, 5]: n.s.
COc1cc([C@@H]2c3c([nH]c4ccccc34)[C@H](C(=O)N3C(=O)OC[C@@H]3Cc3ccccc3)[C@@H]3C(=O)N(C)C(=O)[C@H]23)cc(OC)c1OC [(−)‐10 b] | n.s. | n.s. | 3.7 ± 0.7 µM | 15 ± 11% | – | –
COc1cc([C@@H]2c3c([nH]c4ccccc34)[C@H](C(=O)N3C(=O)OC[C@H]3Cc3ccccc3)[C@@H]3C(=O)N(C)C(=O)[C@H]23)cc(OC)c1OC [(−)‐10 a, (3aR,4R,10R,10aR)‐4‐{[(R)‐4‐Benzyl‐2‐oxo‐1,3‐oxazolidin‐3‐yl]carbonyl}‐2‐methyl‐10‐(3,4,5‐trimethoxyphenyl)‐4,5,10,10a‐tetrahydropyrrolo[3,4‐b]carbazole‐1,3(2H,3aH)‐dione] | – | n.s. | 8.5 ± 2.9 µM | 29 ± 14% | – | inhibition at 10 µM [1, 5]: 30 ± 23%
COc1cc([C@H]2c3c([nH]c4ccccc34)[C@H](C(=O)N3C(=O)OC[C@@H]3Cc3ccccc3)[C@H]3C(=O)NC(=O)[C@@H]23)cc(OC)c1OC [(+)‐9 c] | – | – | – | < 50% | prec. | –
COc1cc([C@@H]2c3c([nH]c4ccccc34)[C@@H](C(=O)N[C@H](CO)Cc3ccccc3)[C@@H]3C(=O)NC(=O)[C@H]23)cc(OC)c1OC [(−)‐14 d] | – | – | – | < 50% | n.s. | –
COc1cc([C@@H]2c3c([nH]c4ccccc34)[C@H](C(=O)N3C(=O)OC[C@@H]3Cc3ccccc3)[C@@H]3C(=O)NC(=O)[C@H]23)cc(OC)c1OC [(−)‐9 b] | n.s. | n.s. | 4.4 ± 0.3 µM | – | – | Inhibition (%) of CK2α2β2 [3, 5]: n.s.
COc1cc([C@H]2c3c([nH]c4ccccc34)[C@@H](C(=O)N3C(=O)OC[C@H]3Cc3ccccc3)[C@H]3C(=O)N(C)C(=O)[C@@H]23)cc(OC)c1OC [(+)‐10 b, (3aS,4S,10S,10aS)‐4‐{[(R)‐4‐Benzyl‐2‐oxo‐1,3‐oxazolidin‐3‐yl]carbonyl}‐2‐methyl‐10‐(3,4,5‐trimethoxyphenyl)‐4,5,10,10a‐tetrahydropyrrolo[3,4‐b]carbazole‐1,3(2H,3aH)‐dione] | n.s. | n.s. | 7.2 ± 1.5 µM | 31 ± 9% | – | –
COc1cc([C@@H]2c3c([nH]c4ccccc34)[C@@H](C(=O)N3C(=O)OC[C@@H]3Cc3ccccc3)[C@@H]3C(=O)OC(=O)[C@H]23)cc(OC)c1OC [(+)‐3 d, (3aS,4S,10R,10aR)‐4‐{[(S)‐4‐Benzyl‐2‐oxo‐1,3‐oxazolidin‐3‐yl]carbonyl}‐10‐(3,4,5‐trimethoxyphenyl)‐4,5,10,10a‐tetrahydrofuro[3,4‐b]carbazole‐1,3(3aH)‐dione] | n.s. | – | – | – | – | inhibition at 10 µM [2]: 43 ± 13%; inhibition at 10 µM [3]: 92 ± 7%
COc1cc([C@H]2c3c([nH]c4ccccc34)[C@H](C(=O)N[C@H](CO)Cc3ccccc3)[C@H]3C(=O)NC(=O)[C@@H]23)cc(OC)c1OC [(+)‐14 c] | – | – | – | < 50% | n.s. | –
COc1cc([C@H]2c3c([nH]c4ccccc34)[C@H](C(=O)N[C@@H](CO)Cc3ccccc3)[C@H]3C(=O)NC(=O)[C@@H]23)cc(OC)c1OC [(+)‐14 d] | – | – | – | < 50% | n.s. | –
